Assay results published in ChEMBL document CHEMBL5137065, “Recent Advances with KDM4 Inhibitors and Potential Applications” (J Med Chem, 2022).

Legend:
[1] = target: T1, Lysine-specific demethylase 4A (Homo sapiens, UniProt O75164); assay: Inhibition of recombinant HQ5-Halo-tagged KDM4A tudor domain (unknown origin) measured by fluorescence polarization assay
T1 sequence (O75164 whole entry): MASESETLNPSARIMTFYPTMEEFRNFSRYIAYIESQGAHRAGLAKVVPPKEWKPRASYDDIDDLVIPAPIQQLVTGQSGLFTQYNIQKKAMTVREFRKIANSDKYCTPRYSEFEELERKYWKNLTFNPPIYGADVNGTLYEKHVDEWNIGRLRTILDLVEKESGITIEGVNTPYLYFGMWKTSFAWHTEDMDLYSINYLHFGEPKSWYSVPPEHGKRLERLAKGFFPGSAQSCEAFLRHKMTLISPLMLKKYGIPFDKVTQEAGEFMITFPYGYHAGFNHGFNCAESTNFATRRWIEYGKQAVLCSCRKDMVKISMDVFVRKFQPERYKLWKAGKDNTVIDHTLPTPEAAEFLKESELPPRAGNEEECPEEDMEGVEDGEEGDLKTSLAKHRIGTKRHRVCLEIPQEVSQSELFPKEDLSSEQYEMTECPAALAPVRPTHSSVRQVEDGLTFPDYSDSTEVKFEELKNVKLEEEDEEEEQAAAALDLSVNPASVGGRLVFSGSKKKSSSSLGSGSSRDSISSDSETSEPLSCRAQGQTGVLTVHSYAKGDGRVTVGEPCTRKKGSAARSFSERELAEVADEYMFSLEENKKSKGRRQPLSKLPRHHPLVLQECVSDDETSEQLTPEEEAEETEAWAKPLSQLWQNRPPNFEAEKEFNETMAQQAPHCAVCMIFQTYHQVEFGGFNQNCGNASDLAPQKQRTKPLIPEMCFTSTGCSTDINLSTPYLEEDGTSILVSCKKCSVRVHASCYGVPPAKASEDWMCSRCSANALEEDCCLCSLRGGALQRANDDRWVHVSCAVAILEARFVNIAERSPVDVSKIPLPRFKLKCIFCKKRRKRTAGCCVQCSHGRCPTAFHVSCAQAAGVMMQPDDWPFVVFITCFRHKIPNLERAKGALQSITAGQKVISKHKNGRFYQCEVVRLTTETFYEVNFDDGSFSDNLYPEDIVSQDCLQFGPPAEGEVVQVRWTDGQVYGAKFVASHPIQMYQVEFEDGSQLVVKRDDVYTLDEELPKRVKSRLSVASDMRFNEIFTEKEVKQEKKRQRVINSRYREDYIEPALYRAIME

KYSE-150 cell line = assay: Growth inhibition of human KYSE-150 cells measured after 48 hrs; type: functional
[2] = Inhibition of KDM4 in human KYSE-150 cells assessed as induction of H3K9me3 accumulation measured by immunostaining method; type: cell-based, KYSE-150 cell line
[3] = Inhibition of KDM4 in human MCF7 cells assessed as induction of H3K9me3 accumulation measured by immunostaining method; type: cell-based
[4] = target: T2, Lysine-specific demethylase 4C (Homo sapiens, UniProt Q9H3R0); assay: Inhibition of KDM4C (unknown origin) using H3K9me3 as substrate and measured by LANCE TR-FRET assay
T2 sequence (Q9H3R0 whole entry): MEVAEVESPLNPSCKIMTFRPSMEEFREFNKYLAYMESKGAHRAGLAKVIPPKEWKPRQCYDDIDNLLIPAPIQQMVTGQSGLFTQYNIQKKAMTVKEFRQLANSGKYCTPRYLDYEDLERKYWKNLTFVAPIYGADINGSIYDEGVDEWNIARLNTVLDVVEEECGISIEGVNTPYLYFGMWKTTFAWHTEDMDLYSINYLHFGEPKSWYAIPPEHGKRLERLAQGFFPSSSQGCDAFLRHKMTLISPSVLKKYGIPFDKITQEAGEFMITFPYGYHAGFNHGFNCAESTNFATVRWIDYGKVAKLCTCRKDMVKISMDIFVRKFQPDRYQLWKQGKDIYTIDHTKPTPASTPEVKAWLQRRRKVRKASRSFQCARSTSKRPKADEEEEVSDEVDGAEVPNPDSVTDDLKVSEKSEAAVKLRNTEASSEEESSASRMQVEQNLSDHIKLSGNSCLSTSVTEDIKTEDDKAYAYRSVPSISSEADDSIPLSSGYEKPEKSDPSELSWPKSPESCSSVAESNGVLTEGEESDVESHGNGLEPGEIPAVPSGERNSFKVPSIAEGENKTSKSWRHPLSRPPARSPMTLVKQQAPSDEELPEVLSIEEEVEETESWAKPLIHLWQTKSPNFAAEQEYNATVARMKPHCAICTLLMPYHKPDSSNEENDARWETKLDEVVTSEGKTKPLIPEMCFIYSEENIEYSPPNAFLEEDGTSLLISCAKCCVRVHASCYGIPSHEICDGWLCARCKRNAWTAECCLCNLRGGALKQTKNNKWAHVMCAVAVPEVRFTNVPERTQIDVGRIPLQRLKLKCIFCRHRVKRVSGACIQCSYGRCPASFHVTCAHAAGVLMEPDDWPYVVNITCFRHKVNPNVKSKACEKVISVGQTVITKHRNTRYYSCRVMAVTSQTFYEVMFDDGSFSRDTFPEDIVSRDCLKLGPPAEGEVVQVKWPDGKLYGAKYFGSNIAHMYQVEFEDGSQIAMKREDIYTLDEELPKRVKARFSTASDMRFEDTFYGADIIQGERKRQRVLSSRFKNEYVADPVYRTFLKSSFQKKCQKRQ

[5] = target: T2, Lysine-specific demethylase 4C; assay: Inhibition of N-terminal GST-tagged human KDM4C (2 to 372 residues) expressed in baculovirus-infected Sf9 cells measured by high-throughput mass spectrometry assay
[6] = target: T2, Lysine-specific demethylase 4C; assay: Inhibition of KDM4C (unknown origin) using H3K9me3 as substrate and measured by antibody-based assay
[7] = target: T1, Lysine-specific demethylase 4A; assay: Inhibition of human KDM4A (1 to 350 residues) measured by ELISA assay
[8] = target: T3, Lysine-specific demethylase 4B (Homo sapiens, UniProt O94953); assay: Inhibition of KDM4B (unknown origin) measured by ELISA assay
T3 sequence (O94953 whole entry): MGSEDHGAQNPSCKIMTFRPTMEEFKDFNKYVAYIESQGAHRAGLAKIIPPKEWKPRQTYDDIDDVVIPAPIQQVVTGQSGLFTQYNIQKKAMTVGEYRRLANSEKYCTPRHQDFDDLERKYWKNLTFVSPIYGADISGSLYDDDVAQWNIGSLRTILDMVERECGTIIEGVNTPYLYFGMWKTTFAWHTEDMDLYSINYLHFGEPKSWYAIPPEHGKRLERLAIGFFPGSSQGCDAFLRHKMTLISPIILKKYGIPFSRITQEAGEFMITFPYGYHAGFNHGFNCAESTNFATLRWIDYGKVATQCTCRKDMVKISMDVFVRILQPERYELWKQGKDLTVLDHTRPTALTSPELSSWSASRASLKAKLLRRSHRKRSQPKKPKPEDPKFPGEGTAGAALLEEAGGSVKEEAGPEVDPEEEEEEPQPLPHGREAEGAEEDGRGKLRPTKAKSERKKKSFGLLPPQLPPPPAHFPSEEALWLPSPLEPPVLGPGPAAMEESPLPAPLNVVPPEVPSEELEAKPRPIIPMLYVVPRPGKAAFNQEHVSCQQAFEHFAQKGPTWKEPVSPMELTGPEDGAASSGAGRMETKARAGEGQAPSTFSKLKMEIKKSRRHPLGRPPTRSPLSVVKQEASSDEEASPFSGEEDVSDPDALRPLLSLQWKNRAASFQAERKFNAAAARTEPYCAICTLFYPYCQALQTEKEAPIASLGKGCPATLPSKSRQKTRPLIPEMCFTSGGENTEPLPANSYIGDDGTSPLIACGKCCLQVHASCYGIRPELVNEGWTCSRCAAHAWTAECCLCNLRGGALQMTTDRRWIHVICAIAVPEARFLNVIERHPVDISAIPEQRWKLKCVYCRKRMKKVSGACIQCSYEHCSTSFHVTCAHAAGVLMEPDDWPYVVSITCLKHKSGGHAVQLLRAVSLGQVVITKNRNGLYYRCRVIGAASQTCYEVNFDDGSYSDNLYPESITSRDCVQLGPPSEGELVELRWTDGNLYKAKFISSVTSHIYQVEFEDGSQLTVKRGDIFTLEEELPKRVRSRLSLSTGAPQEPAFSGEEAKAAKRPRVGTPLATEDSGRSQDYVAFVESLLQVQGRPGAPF

[9] = target: T1, Lysine-specific demethylase 4A; assay: Inhibition of KDM4A (unknown origin) using H3K9me3 as substrate and measured by LANCE TR-FRET assay
[10] = target: T3, Lysine-specific demethylase 4B; assay: Inhibition of KDM4B (unknown origin) using H3K9me3 as substrate and measured by LANCE TR-FRET assay
[11] = target: T4, Lysine-specific demethylase 4D (Homo sapiens, UniProt Q6B0I6); assay: Inhibition of KDM4D (unknown origin) using H3K9me3 as substrate and measured by LANCE TR-FRET assay
T4 sequence (Q6B0I6 whole entry): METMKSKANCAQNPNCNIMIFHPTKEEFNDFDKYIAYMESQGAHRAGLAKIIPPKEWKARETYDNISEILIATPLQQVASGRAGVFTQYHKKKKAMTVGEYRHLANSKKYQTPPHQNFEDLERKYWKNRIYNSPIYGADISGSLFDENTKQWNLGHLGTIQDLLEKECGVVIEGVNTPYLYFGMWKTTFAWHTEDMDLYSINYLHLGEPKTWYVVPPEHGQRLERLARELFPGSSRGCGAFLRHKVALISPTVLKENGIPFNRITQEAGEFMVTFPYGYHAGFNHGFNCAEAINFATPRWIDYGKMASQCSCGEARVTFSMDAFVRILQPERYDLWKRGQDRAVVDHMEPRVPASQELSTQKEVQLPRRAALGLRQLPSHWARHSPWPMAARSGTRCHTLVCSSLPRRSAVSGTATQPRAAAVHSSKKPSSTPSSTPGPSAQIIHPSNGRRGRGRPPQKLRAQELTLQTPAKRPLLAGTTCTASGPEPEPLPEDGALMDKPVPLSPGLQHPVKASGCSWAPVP

[12] = target: T3, Lysine-specific demethylase 4B; assay: Inhibition of GST-tagged KDM4B (unknown origin) using H3K9(me3)-biotin peptide as substrate incubated for 30 mins and measured after 15 mins by TR-FRET assay
[13] = Antiproliferative activity against human neuroblastoma cells after 3 days by PrestoBlue assay; type: functional, cell-based; conditions: Neuroblastoma cell, 72 h
[14] = Inhibition of KDM4 (unknown origin) measured by ESI-TOF MS assay; set-up: species or system Homo sapiens
[15] = target: T3, Lysine-specific demethylase 4B; assay: Inhibition of KDM4B (unknown origin) measured by AlphaScreen assay
[16] = target: Lysine-specific demethylase 5A (Homo sapiens, UniProt P29375); assay: Inhibition of KDM5A (unknown origin) measured by AlphaScreen assay
[17] = target: Lysine-specific demethylase 6B (Homo sapiens, UniProt O15054); assay: Inhibition of KDM6B (unknown origin) measured by AlphaScreen assay
[18] = target: T5, Lysine-specific demethylase 4E (Homo sapiens, UniProt B2RXH2)
T5 sequence (B2RXH2 whole entry): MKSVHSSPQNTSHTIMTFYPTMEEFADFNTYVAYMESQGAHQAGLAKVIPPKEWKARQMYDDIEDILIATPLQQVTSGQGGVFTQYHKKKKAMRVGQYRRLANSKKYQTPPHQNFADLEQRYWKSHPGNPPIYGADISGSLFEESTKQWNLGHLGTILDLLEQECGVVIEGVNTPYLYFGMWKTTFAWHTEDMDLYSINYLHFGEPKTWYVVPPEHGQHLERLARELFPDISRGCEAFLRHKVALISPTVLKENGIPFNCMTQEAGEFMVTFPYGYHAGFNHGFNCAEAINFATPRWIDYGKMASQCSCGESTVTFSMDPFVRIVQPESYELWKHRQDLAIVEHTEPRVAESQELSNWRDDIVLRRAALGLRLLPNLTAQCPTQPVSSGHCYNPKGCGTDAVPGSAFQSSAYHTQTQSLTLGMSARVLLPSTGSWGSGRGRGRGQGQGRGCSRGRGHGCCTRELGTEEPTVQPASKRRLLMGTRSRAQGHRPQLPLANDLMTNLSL

[19] = Lipophilicity, logD of compound at pH 7.4 by Chromatography; type: physicochemical; conditions: buffer
[20] = target: T2, Lysine-specific demethylase 4C; assay: Inhibition of KDM4C (unknown origin) measured by AlphaScreen assay

Chain of Lysine-specific demethylase 5A (P29375 whole entry): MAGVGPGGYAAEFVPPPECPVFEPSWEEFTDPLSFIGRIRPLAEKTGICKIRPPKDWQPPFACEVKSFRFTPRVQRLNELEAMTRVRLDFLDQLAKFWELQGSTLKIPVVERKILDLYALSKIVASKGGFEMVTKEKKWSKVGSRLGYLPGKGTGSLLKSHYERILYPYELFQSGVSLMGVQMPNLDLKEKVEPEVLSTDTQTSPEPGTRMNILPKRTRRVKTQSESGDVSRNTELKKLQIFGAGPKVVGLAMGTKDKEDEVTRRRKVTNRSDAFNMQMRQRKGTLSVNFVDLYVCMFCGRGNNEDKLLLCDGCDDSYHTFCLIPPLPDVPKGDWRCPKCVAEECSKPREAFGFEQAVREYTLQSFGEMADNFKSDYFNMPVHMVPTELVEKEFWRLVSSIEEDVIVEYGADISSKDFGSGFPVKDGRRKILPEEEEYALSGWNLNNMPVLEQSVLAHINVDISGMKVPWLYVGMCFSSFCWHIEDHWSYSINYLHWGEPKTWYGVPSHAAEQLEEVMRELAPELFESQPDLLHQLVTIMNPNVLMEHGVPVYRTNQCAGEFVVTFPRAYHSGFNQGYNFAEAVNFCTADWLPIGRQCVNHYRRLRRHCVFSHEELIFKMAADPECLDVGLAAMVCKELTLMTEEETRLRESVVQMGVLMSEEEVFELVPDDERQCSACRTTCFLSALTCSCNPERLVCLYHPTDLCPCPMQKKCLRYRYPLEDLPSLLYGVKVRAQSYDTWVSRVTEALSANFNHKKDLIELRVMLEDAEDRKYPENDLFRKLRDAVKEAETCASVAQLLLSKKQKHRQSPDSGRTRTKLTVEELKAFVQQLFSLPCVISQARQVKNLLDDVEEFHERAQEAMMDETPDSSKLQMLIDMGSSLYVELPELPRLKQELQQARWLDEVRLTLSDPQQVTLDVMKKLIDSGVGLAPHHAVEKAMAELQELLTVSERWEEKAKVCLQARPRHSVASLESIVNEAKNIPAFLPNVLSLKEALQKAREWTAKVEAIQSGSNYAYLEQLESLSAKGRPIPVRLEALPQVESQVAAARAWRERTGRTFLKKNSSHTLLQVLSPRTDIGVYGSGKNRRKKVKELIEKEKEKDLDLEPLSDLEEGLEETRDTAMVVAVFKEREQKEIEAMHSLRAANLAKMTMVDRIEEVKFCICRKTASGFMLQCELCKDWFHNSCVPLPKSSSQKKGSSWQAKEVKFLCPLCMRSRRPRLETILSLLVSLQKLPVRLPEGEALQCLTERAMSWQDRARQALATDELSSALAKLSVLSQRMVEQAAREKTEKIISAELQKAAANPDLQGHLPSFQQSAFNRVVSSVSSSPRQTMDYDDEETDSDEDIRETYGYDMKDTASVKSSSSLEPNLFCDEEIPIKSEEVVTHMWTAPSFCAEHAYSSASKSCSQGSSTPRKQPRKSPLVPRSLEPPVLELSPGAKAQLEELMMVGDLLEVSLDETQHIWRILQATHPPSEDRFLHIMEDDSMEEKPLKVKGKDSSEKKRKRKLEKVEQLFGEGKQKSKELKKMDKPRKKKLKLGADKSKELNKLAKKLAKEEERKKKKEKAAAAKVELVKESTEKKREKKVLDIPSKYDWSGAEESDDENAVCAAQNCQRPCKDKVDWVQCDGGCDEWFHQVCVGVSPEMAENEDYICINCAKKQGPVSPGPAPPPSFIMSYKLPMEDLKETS
Chain of Lysine-specific demethylase 6B (O15054 whole entry): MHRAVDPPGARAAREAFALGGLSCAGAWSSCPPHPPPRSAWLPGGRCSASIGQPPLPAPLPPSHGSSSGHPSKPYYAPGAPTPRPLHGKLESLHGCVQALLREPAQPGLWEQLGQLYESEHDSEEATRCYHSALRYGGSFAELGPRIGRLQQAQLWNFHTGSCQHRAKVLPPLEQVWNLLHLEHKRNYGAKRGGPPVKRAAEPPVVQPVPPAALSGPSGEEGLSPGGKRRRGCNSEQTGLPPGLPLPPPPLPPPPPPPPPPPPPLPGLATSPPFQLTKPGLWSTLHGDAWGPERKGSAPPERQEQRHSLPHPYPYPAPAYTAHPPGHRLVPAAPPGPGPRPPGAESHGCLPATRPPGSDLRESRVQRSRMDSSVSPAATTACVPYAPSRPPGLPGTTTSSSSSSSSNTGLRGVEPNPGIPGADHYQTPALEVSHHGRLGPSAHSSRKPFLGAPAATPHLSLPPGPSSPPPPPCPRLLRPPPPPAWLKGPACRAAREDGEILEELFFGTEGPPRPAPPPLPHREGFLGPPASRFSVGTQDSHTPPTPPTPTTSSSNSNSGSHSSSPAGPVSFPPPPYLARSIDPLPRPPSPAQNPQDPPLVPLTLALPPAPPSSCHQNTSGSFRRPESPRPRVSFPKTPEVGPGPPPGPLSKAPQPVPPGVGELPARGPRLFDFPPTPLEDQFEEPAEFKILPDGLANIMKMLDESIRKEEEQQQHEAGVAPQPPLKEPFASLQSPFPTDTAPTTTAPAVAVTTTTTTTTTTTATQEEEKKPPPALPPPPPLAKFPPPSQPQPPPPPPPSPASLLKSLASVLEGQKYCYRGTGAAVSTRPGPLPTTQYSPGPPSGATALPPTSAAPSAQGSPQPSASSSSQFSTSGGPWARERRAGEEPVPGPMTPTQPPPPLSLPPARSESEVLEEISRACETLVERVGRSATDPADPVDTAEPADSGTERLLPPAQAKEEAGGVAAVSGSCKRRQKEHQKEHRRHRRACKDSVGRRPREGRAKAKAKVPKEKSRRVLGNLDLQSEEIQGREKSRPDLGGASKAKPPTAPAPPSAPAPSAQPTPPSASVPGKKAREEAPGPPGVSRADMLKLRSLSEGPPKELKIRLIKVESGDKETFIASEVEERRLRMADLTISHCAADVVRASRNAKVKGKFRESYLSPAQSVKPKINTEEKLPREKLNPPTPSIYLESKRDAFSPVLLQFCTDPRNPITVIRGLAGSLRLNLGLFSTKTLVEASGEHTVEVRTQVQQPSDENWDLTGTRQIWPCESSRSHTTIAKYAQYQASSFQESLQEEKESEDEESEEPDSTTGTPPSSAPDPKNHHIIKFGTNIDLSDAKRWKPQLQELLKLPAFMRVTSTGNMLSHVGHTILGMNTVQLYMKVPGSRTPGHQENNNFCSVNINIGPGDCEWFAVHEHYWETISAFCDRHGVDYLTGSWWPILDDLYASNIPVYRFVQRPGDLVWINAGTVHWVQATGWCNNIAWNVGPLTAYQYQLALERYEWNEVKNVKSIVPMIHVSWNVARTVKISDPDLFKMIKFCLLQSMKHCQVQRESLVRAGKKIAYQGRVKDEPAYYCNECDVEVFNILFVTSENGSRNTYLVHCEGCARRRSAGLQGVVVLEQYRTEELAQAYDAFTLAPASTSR

CCCCc1oc2ccccc2c1C(=O)c1cc(I)c(OCCN)c(I)c1
IC50 [1]: 26 µM

COC(=O)/C=C/C(=O)N(O)CCCCNCc1ccc(COC(=O)Nc2cccc3ccccc23)cc1
GI50 (KYSE-150 cell line): 5.1 µM
EC50 [2]: 8.6 µM
EC50 [3]: 6.3 µM

CNc1cnccc1C(=O)O
IC50 [4]: 1400 nM

O=C(O)c1ccnc(-c2ccc[nH]2)c1
Ki [5]: 31 nM

CC(C)C(=O)NC(c1ccco1)c1ccc2cccnc2c1O (stereo unspecified)
IC50 [6]: 30 µM

Clc1ccc(N/N=C(\c2ccccc2)c2ccccn2)nc1
IC50 [7]: 290 nM
IC50 [8]: 290 nM

CN(c1ccccc1)c1ccc2c(c1)CCC[C@H]2CNc1cnccc1C(=O)O
IC50 [9]: 35 nM
IC50 [10]: 35 nM
IC50 [11]: 35 nM

Cc1cc(C2CCCCC2)n(O)c(=O)c1 [CICLOPIROX]
IC50 [12]: 3.8 µM
IC50 [13]: 200 nM

O=C(O)/C=C/C(=O)N(O)CCCCNCc1ccc(COC(=O)Nc2cccc3ccccc23)cc1
IC50 [14]: 4.3 µM

C=CCNC1=C2C[C@@H](C)C[C@H](OC)[C@H](O)[C@@H](C)/C=C(\C)[C@H](OC(N)=O)[C@@H](OC)/C=C\C=C(/C)C(=O)NC(=CC1=O)C2=O (stereo in doubt) [TANESPIMYCIN]
IC50 [15]: 700 nM
IC50 [16]: 130 nM
IC50 [17]: 400 nM

CC(/C=C/C(=O)NO)=C\[C@@H](C)C(=O)c1ccc(N(C)C)cc1 [TRICHOSTATIN]
IC50 [18]: 28.4 µM

CCCCc1oc2ccccc2c1C(=O)c1cc(I)c(OCC[N+](C)(C)C)c(I)c1
IC50 [1]: 26 µM

O=C(O)c1ccncc1NCc1ccco1
chromatographic logD [19]: 0.1

CO[C@H]1/C=C\C=C(/C)C(=O)NC2=CC(=O)C(NCCN(C)C)=C(C[C@@H](C)C[C@H](OC)[C@H](O)[C@@H](C)/C=C(\C)[C@@H]1OC(N)=O)C2=O (stereo in doubt) [ALVESPIMYCIN]
IC50 [15]: 700 nM
IC50 [20]: 700 nM
IC50 [16]: 130 nM
IC50 [17]: 400 nM

O=c1[nH]c(Oc2cnn(Cc3ccccc3)c2)nc2cnccc12
chromatographic logD [19]: 1.8
